Test results: US8466199B2, “Allyloxy and alkyloxy benzoic acid delivery agents” (Emisphere Technologies, Inc., priority 2007, dated 2013)

Experiments:
[1] = test system: fasted male Sprague-Dawley rats; test: Oral delivery of insulin to male Sprague-Dawley rats (blood glucose by glucometer, compared to vehicle control); assay type: in vivo, rat
[2] = test system: fasted male Sprague-Dawley rats; test: as above; assay type: in vivo, rat; details: oral gavage, 200 mg/kg delivery agent + 0.5 mg/kg insulin, C minimum over 0-60 min, average of experiments
Protocol: Insulin stock solution (15 mg/ml) (Human zinc insulin, Calbiochem-Novabiochem Corp., La Jolla, Calif.) was prepared with deionized water. Oral dosing compositions containing 200 mg/kg of a delivery agent compound of the present invention and 0.5 mg/kg of insulin in an aqueous solution were prepared for the compounds prepared in Examples 2-24.
(§1) One ml of the dosing solution was administered to fasted male Sprague-Dawley rats by oral gavage with an average weight of about 225-250 grams Blood glucose levels were then determined by glucometer (One Touch Ultra®, LifeScan, Inc.) and compared to vehicle control (1 ml/kg of water). Samples were collected prior to dosing (time 0) and at 15, 30, 45 and 60 minutes after dosing. The % glucose reduction is shown below in Table 1. The values correspond to the C minimum, and are an average % reduction with respect to the number of times the experiment was run for each delivery agent.
The solutions were administered to fasted male Sprague-Dawley rats and the % glucose reduction was determined in the same manner as described above.
as §1, with “Insulin stock solution (15 mg/ml) (Human zinc insulin, Calbiochem-Novabiochem Corp., La Jolla, Calif.) was prepared with deionized water. Oral dosing compositions containing 200 mg/kg of a delivery agent compound of the present invention and 0.5 mg/kg of insulin in an aqueous solution were prepared for the compounds prepared in Examples 27-34. One ml” for “One ml”, “about 225-250 grams. Blood glucose” for “about 225-250 grams Blood glucose”, “in Table 3. The values” for “in Table 1. The values”
as §1, with “Insulin stock solution (15 mg/ml) (Human zinc insulin, Calbiochem-Novabiochem Corp., La Jolla, Calif.) was prepared with deionized water. Oral dosing compositions containing 200 mg/kg of a delivery agent compound of the present invention and 0.5 mg/kg of insulin in an aqueous solution were prepared for the compounds prepared in Examples 37-49. One ml” for “One ml”, “about 225-250 grams. Blood glucose” for “about 225-250 grams Blood glucose”, “in Table 5. The values” for “in Table 1. The values”

[3] = Table 2, Insulin Dose 0 mg/kg, Carrier Dose 200 mg/kg
[4] = Table 2, Insulin Dose 0.25 mg/kg, Carrier Dose 200 mg/kg

## C=CCOc1ccccc1C(=O)O [Compound 1, 2-Allyloxy-benzoic acid]
[1]; [3]
  Glucose (Absolute change from Control): −12.5%
[1]; Table 2, Insulin Dose 0.25 mg/kg, Carrier Dose 100 mg/kg
  Glucose (Absolute change from Control): −17.9%
[1]; [4]
  Glucose (Absolute change from Control): 3.0%
[2]; Table 1, aqueous solution
  Glucose (Absolute change from Control): −35.1%

## C=CCOc1ccc(C(=O)O)cc1 [Compound 2, 4-Allyloxy-benzoic acid]
[2]; Table 1, aqueous solution
  Glucose (Absolute change from Control): −42.4%

## C=CCCOc1ccccc1C(=O)O [Compound 3, 2-But-3-enyloxy-benzoic acid]
[2]; Table 1, aqueous solution
  Glucose (Absolute change from Control): −25.5%

## C=CCCOc1ccc(C(=O)O)cc1 [Compound 4, 4-But-3-enyloxy-benzoic acid]
[1]; [3]
  Glucose (Absolute change from Control): 8.8%
[1]; [4]
  Glucose (Absolute change from Control): −11.4%
[2]; Table 1, aqueous solution
  Glucose (Absolute change from Control): −41.6%

## C=CCCOc1cccc(C(=O)O)c1 [Compound 5, 3-But-3-enyloxy-benzoic acid]
[1]; [3]
  Glucose (Absolute change from Control): −6.3%
[1]; [4]
  Glucose (Absolute change from Control): −5.4%
[2]; Table 1, aqueous solution
  Glucose (Absolute change from Control): −40.8%

## C=CCOc1cccc(C(=O)O)c1 [Compound 6, 3-Allyloxy-benzoic acid]
[1]; [3]
  Glucose (Absolute change from Control): −10.7%
[1]; [4]
  Glucose (Absolute change from Control): −18.2%
[2]; Table 1, aqueous solution
  Glucose (Absolute change from Control): −42.8%

## CC(C)=CCOc1ccccc1C(=O)O [Compound 7, 2-(3-Methyl-but-2-enyloxy)-benzoic acid]
[2]; Table 1, aqueous solution
  Glucose (Absolute change from Control): −38.8%

## CC(C)=CCOc1cccc(C(=O)O)c1 [Compound 8, 3-(3-Methyl-but-2-enyloxy)-benzoic acid]
[2]; Table 1, aqueous solution
  Glucose (Absolute change from Control): −31.6%

## CC(C)=CCOc1ccc(C(=O)O)cc1 [Compound 9, 4-(3-Methyl-but-2-enyloxy)-benzoic acid]
[2]; Table 1, aqueous solution
  Glucose (Absolute change from Control): −27.8%

## C=CCOc1ccc(OC)cc1C(=O)O [Compound 10, 2-Allyloxy-5-methoxy-benzoic acid]
[2]; Table 1, aqueous solution
  Glucose (Absolute change from Control): −27.2%

## C=CCOc1cc(OC)ccc1C(=O)O [Compound 11, 2-Allyloxy-4-methoxy-benzoic acid]
[2]; Table 1, aqueous solution
  Glucose (Absolute change from Control): −24.0%

## C=CCOc1c(OC)cccc1C(=O)O [Compound 12, 2-Allyloxy-3-methoxy-benzoic acid]
[2]; Table 1, aqueous solution
  Glucose (Absolute change from Control): −13.5%

## C=CCOc1ccc(C)cc1C(=O)O [Compound 13, 2-Allyloxy-5-methyl-benzoic acid]
[2]; Table 1, aqueous solution
  Glucose (Absolute change from Control): −30.7%

## C=CCOc1cccc(C)c1C(=O)O [Compound 14, 2-Allyloxy-6-methyl-benzoic acid]
[2]; Table 1, aqueous solution
  Glucose (Absolute change from Control): −14.4%

## C=C(C)COc1ccccc1C(=O)O [Compound 15, 2-(2-Methyl-allyloxy)-benzoic acid]
[2]; Table 1, aqueous solution
  Glucose (Absolute change from Control): −37.4%

## C=CCOc1cc(OCCO)ccc1C(=O)O [Compound 16, 2-Allyloxy-4-(2-hydroxy-ethoxy)-benzoic acid]
[2]; Table 1, aqueous solution
  Glucose (Absolute change from Control): −4.6%

## C=CCOc1ccc(C(C)=O)cc1C(=O)O [Compound 17, 5-Acetyl-2-allyloxy-benzoic acid]
[2]; Table 1, aqueous solution
  Glucose (Absolute change from Control): 0.6%

## C=CCOc1ccc(Br)cc1C(=O)O [Compound 18, 2-Allyloxy-5-bromo-benzoic acid]
[2]; Table 1, aqueous solution
  Glucose (Absolute change from Control): −5.0%

## C=CCOc1ccc(Cl)cc1C(=O)O [Compound 19, 2-Allyloxy-5-chloro-benzoic acid]
[2]; Table 1, aqueous solution
  Glucose (Absolute change from Control): −21.5%

## C=C(C)COc1ccc(C(=O)O)cc1 [Compound 20, 4-(2-Methyl-allyloxy)-benzoic acid]
[2]; Table 1, aqueous solution
  Glucose (Absolute change from Control): −51.1%

## C=C(C)COc1cccc(C(=O)O)c1 [Compound 21, 3-(2-Methyl-allyloxy)-benzoic acid]
[2]; Table 1, aqueous solution
  Glucose (Absolute change from Control): −27.4%

## C=CCOc1cc(C(=O)O)ccc1OC [Compound 22, 3-Allyloxy-4-methoxy-benzoic acid]
[2]; Table 1, aqueous solution
  Glucose (Absolute change from Control): −10.2%

## C=C(C)COc1cc(C(=O)O)ccc1OC [Compound 23, 4-Methoxy-3-(2-methyl-allyloxy)-benzoic acid]
[2]; Table 1, aqueous solution
  Glucose (Absolute change from Control): −8.4%

## CCCOc1cccc(C(=O)O)c1 [Compound 24, 3-Propoxy-benzoic acid]
[2]; Table 3
  Glucose (Absolute change from Control): −15.2%

## CCCOc1ccc(C(=O)O)cc1 [Compound 25, 4-Propoxy-benzoic acid]
[2]; Table 3
  Glucose (Absolute change from Control): −25.5%

## CCCOc1ccccc1C(=O)O [Compound 26, 2-Propoxy-benzoic acid]
[2]; Table 3
  Glucose (Absolute change from Control): −14.2%

## CCCCOc1cccc(C(=O)O)c1 [Compound 27, 3-Butoxy-benzoic acid]
[2]; Table 3
  Glucose (Absolute change from Control): −23.9%

## CCCCOc1ccc(C(=O)O)cc1 [Compound 28, 4-Butoxy-benzoic acid]
[2]; Table 3
  Glucose (Absolute change from Control): −22.3%

## CCCCOc1ccccc1C(=O)O [Compound 29, 2-Butoxy-benzoic acid]
[2]; Table 3
  Glucose (Absolute change from Control): −34.9%

## CC(C)COc1ccc(C(=O)O)cc1 [Compound 30, 4-Isobutoxy-benzoic acid]
[2]; Table 3
  Glucose (Absolute change from Control): −29.8%

## CC(C)COc1cccc(C(=O)O)c1 [Compound 31, 3-Isobutoxy-benzoic acid]
[2]; Table 3
  Glucose (Absolute change from Control): −9.5%

## C=CCOCc1ccc(C(=O)O)cc1 [Compound 32, 4-Allyloxymethyl-benzoic acid]
[2]; Table 5
  Glucose (Absolute change from Control): −19.5%

## C=CCCOCc1ccc(C(=O)O)cc1 [Compound 33, 4-But-3-enyloxymethyl-benzoic acid]
[2]; Table 5
  Glucose (Absolute change from Control): −38.5%

## C=CC(C)OCc1ccc(C(=O)O)cc1 (centres unmarked) [Compound 34, 4-(1-Methyl-allyloxymethyl)-benzoic acid]
[2]; Table 5
  Glucose (Absolute change from Control): −16.6%

## C=C(C)COCc1ccc(C(=O)O)cc1 [Compound 35, 4-(2-Methyl-allyloxymethyl)-benzoic acid]
[2]; Table 5
  Glucose (Absolute change from Control): −16.0%

## C=CCCOCc1cccc(C(=O)O)c1 [Compound 36, 3-But-3-enyloxymethyl-benzoic acid]
[2]; Table 5
  Glucose (Absolute change from Control): −20.7%

## C=C(C)COCc1cccc(C(=O)O)c1 [Compound 37, 3-(2-Methyl-allyloxymethyl)-benzoic acid]
[2]; Table 5
  Glucose (Absolute change from Control): −8.4%

## C=CCOCc1cccc(C(=O)O)c1 [Compound 38, 3-Allyloxymethyl-benzoic acid]
[2]; Table 5
  Glucose (Absolute change from Control): −13.1%

## CCOCc1ccc(C(=O)O)cc1 [Compound 39, 4-Ethoxymethyl-benzoic acid]
[2]; Table 5
  Glucose (Absolute change from Control): −1.9%

## CC(C)OCc1ccc(C(=O)O)cc1 [Compound 40, 4-Isopropoxymethyl-benzoic acid]
[2]; Table 5
  Glucose (Absolute change from Control): −31.9%

## CCCOCc1ccc(C(=O)O)cc1 [Compound 41, 4-Propoxymethyl-benzoic acid]
[2]; Table 5
  Glucose (Absolute change from Control): −19.2%

## CCOCc1cccc(C(=O)O)c1 [Compound 42, 3-Ethoxymethyl-benzoic acid]
[2]; Table 5
  Glucose (Absolute change from Control): −11.3%

## CC(C)OCc1cccc(C(=O)O)c1 [Compound 43, 3-Isopropoxymethyl-benzoic acid]
[2]; Table 5
  Glucose (Absolute change from Control): −29.3%

## CCCOCc1cccc(C(=O)O)c1 [Compound 44, 3-Propoxymethyl-benzoic acid]
[2]; Table 5
  Glucose (Absolute change from Control): −20.8%
